From ChEMBL document CHEMBL5154664, “Imidazolylacetophenone oxime-based multifunctional neuroprotective agents: Discovery and structure-activity relationships” (Eur J Med Chem, 2022)

Tests used:
[1] = Cytotoxicity against LPS induced mouse BV-2 cells assessed as inhibition in cell viability at 20 uM measured by MTT assay
[2] = Inhibition of LPS induced NO production in mouse BV-2 cells by Griess reagent based analysis; format: functional, cell-based
[3] = Antioxidant activity assessed as DPPH radical scavenging activity at 20 uM incubated for 30 mins under dark condition by microplate reader based assay; format: functional
[4] = biological target: Acetylcholinesterase (Electrophorus electricus) (UniProt O42275); assay: Inhibition of electric eel AChE at 20 uM using acetylthiocholine iodide as substrate preincubated with enzyme for 20 mins followed by substrate addition and measured after 45 mins by Ellman's method; settings: time 65.0 min
Chain of Acetylcholinesterase (Electrophorus electricus) (O42275 24-633 limits assumed): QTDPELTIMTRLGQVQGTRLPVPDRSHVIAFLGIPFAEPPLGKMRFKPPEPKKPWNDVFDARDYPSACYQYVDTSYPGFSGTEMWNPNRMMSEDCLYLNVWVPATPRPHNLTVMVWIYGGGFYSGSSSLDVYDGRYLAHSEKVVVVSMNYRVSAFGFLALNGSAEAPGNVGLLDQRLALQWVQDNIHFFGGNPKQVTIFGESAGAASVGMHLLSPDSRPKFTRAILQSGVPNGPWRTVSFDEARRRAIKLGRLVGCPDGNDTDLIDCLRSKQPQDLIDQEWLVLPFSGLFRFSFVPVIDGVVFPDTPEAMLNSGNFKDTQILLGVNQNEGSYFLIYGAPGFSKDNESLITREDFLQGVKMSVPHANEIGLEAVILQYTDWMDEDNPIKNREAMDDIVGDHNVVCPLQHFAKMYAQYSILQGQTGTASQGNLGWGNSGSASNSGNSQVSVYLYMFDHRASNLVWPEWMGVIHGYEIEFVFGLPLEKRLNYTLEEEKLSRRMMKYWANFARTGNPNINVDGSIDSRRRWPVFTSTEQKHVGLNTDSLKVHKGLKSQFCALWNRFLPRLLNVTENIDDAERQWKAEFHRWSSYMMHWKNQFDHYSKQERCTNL

| SMILES | viability at 20 µM ([1]; BV-2 cells) [%] | EC50 [2] [µM] | Activity [3] [%] | inhibition [4] [%] | viability at 20 µM ([1]; bv-2) [%] |
| --- | --- | --- | --- | --- | --- |
| CC1(C)Oc2ccc(/C(Cn3ccnc3)=N/OCc3ccccc3)cc2O1 | 95.7 | 5.69 | – | – | – |
| CC1(C)Oc2ccc(/C(Cn3ccnc3)=N/OC(=O)c3ccc(F)cc3)cc2O1 | 99.7 | 6.32 | – | – | – |
| Cc1cccc(C(=O)O/N=C(\Cn2ccnc2)c2ccc3c(c2)OC(C)(C)O3)c1 | 96.1 | 1.71 | 29.8 | – | – |
| CC1(C)Oc2ccc(/C(Cn3ccnc3)=N/OC(=O)c3ccc4cc(Br)ccc4c3)cc2O1 | 92.7 | 1.13 | – | 69 | – |
| C=CCO/N=C(\Cn1ccnc1)c1ccc2c(c1)OC(C)(C)O2 | 96.4 | 2.22 | – | – | – |
| CC1(C)Oc2ccc(/C(Cn3ccnc3)=N/OC(=O)/C=C/c3cccc(Cl)c3)cc2O1 | 92.7 | 4.83 | – | – | – |
| CC1(C)Oc2ccc(/C(Cn3ccnc3)=N/OC(=O)c3ccccc3Br)cc2O1 | 95.4 | 3.89 | – | – | – |
| Clc1ccc(CO/N=C(\Cn2ccnc2)c2ccc(Cl)cc2Cl)c(Cl)c1 [OXICONAZOLE] | – | – | – | – | 96.2 |
| CC1(C)Oc2ccc(/C(Cn3ccnc3)=N/OC(=O)c3ccc(Br)cc3)cc2O1 | 92.6 | 3.16 | – | – | – |
| FC(F)(F)c1ccc(CO/N=C(\Cn2ccnc2)c2ccc3c(c2)OCO3)cc1 | 92.8 | 2.37 | – | – | – |
| C=C(C)CO/N=C(\Cn1ccnc1)c1ccc2c(c1)OCO2 | 96.5 | 2.12 | – | – | – |
| CC1(C)Oc2ccc(/C(Cn3ccnc3)=N/OC(=O)/C=C/c3ccc(Cl)cc3)cc2O1 | 91 | 3.71 | – | 71 | – |
| Cc1ccc(C(=O)O/N=C(\Cn2ccnc2)c2ccc3c(c2)OC(C)(C)O3)cc1 | 98.2 | 9.05 | – | – | – |
| c1ccc(CO/N=C(\Cn2ccnc2)c2ccc3c(c2)OCO3)cc1 | 97.8 | 4.43 | – | – | – |
| CC1(C)Oc2ccc(/C(Cn3ccnc3)=N/OC(=O)Cc3ccc4ccccc4c3)cc2O1 | 96.4 | 1.51 | – | – | – |
| CC1(C)Oc2ccc(/C(Cn3ccnc3)=N/OC(=O)/C=C/c3ccccc3)cc2O1 | 91.8 | 5.85 | – | – | – |
| O=c1c(O)c(-c2ccc(O)c(O)c2)oc2cc(O)cc(O)c12 [QUERCETIN] | 94.3 | 9.56 | – | – | – |
| CC(C)=CCO/N=C(\Cn1ccnc1)c1ccc2c(c1)OCO2 | 93.3 | 1.76 | 4.25 | – | – |
| C#CCO/N=C(\Cn1ccnc1)c1ccc(Cl)cc1 | 92.4 | 15.5 | – | – | – |
| C#CCO/N=C(\Cn1ccnc1)c1ccc(I)cc1 | 92.1 | 12.7 | – | – | – |
| C#CCO/N=C(\Cn1ccnc1)c1ccc2c(c1)OC(C)(C)O2 | 95.1 | 3.25 | – | – | – |
| FC(F)(F)c1ccccc1CO/N=C(\Cn1ccnc1)c1ccc2c(c1)OCO2 | 95.4 | 1.53 | 8.51 | – | – |
